These results are taken from PubChem BioAssay (NCI).

Holding throughout (test): NCI-60 cell line screen, 48 h
For assay [1], the system named is ACHN renal.
Assay [2] has as its system BT-549 breast.
Assay [3] concerns COLO 205 colon.
The subject of assay [4] is HL-60(TB) leukemia.
For assay [5], the system named is HT29 colon.
The test system of assay [6] is MALME-3M melanoma.
The test system of assay [7] is RPMI-8226 leukemia.
Assay [8] relates to SK-MEL-5 melanoma.
Assay [9] relates to SN12C renal.
Assay [10] has as its system SNB-75 CNS.

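96-well plates; 48 h exposure; 5 concentrations. Endpoints by linear interpolation between flanking doses. Not reached: highest tested concentration assigned. GI50 = concentration required for 50% inhibition of growth. TGI is the concentration that stops growth completely.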

For the compound `COc1ccc(C(=O)/C=C/c2ccc(Cl)cc2)cc1S(N)(=O)=O`, the GI50 in assay [1] is 1.94 µM; in assay [2], 2.29 µM; in assay [3], 2.03 µM; in assay [4] it was 3.08 µM; in [5], 3.27 µM; in assay [6], 5.89 µM. Also, the GI50 was 2.61 µM in assay [7], 5.69 µM in assay [8] and 2.72 µM in assay [9]. Besides, the TGI in assay [1] stood at 4.12 µM; in assay [2], 7.33 µM; in [3] it was 4.84 µM; in assay [4] it was 8.77 µM; in assay [5] it was 10.5 µM; in assay [6], 20.2 µM. Also, the TGI in assay [7] is 6.53 µM; in assay [8], 18 µM; in assay [9], 8.4 µM.

In the case of `COc1c2occc2c(OC)c2c(=O)c(S(=O)(=O)NC(=O)Nc3ccc(Cl)cc3)coc12`, the TGI in [1], in [2], in assay [3], in [4], in assay [5] and in assay [6] was more than 10 µM in each case. Moreover, the TGI in assay [7], in assay [8] and in [9] was more than 10 µM each time.

Consider `CCCCc1ccc2nc(NC(=O)OC)[nH]c2c1`, for which the GI50 is 0.077 µM in assay [1]; 0.0707 µM in assay [2]; 0.038 µM in [3]; 0.0377 µM in assay [5]; 0.0526 µM in assay [6]; 0.0331 µM in [7]. Besides, the GI50 was 0.035 µM in assay [8], 0.0832 µM in [9] and 0.0257 µM in assay [10]. The TGI is more than 64.4 µM in [1]; 12.4 µM in [2]; 0.37 µM in assay [3]; 23.7 µM in assay [6]; 2.57 µM in assay [8]; more than 60.4 µM in assay [9]. For the same compound, the TGI in [10] worked out at 1.18 µM.

For the compound `Cc1cc(Cl)n2c(nc3ccccc32)c1C#N`, the GI50 is 0.567 µM in assay [1]; 0.473 µM in assay [2]; 0.296 µM in [3]; 0.241 µM in assay [4]; 0.858 µM in [6]; 0.231 µM in assay [7]. Moreover, the figures for the GI50 in [8], in [9] and in assay [10] were 0.573 µM, 0.499 µM and 1.33 µM, respectively. Besides, the TGI amounted to 1.84 µM in assay [1]; 2.28 µM in assay [2]; 0.803 µM in assay [3]; 1.09 µM in assay [4]; 2.63 µM in assay [6]; 2.45 µM in [7]. Also, the TGI in assay [8] amounted to 3.45 µM; in assay [9], 8.33 µM; in assay [10], 8.53 µM.

Consider `COc1ccc(CN(O)C2C(CO)OC(n3cc(I)c(=O)[nH]c3=O)C2O)cc1` (configuration not stated), for which the TGI in assay [1], in assay [3], in assay [4], in assay [5], in assay [6] and in [7] was more than 100 µM each time. Moreover, the TGI in assay [8], in [9] and in assay [10] was more than 100 µM each time.

In the case of `COC1CC(OC2OC(CO)C(O)C(O)C2O)/C(=C\C#N)C(O)C1OC` (configuration not stated), the TGI in [1], in [2], in assay [3], in assay [4], in [5] and in assay [6] was more than 100 µM each time. Further, the TGI in assay [7], in assay [8] and in assay [9] was more than 100 µM each time.

On to `C[N+](C)(C)CC(=O)N/N=C(/C=C/c1ccccc1)CC1OC(=O)c2ccccc21` (configuration not stated), for which the TGI in assay [1] is more than 100 µM; in assay [3], more than 100 µM; in [4], more than 100 µM; in assay [5], more than 10 µM; in [6], more than 100 µM; in assay [7] it was more than 100 µM. Further, the TGI in assay [8], in assay [9] and in assay [10] was more than 100 µM each time.

Take `COC(=O)C1=C(O)C(O)=C(C(=O)OC)CC1`: the TGI in [1], in assay [3], in [4], in [5], in assay [6] and in assay [7] was more than 100 µM in each case. Further, the TGI in [8], in assay [9] and in assay [10] was more than 100 µM throughout.

On to `CC(C)c1ccc2c(c1)CCC1C(C)(C)[C@@H](O)CC[C@]21C` (some centres not stated), for which the TGI in assay [1] is more than 100 µM; in assay [3], 32.9 µM; in assay [4], 37.6 µM; in assay [5], 30 µM; in [6], 30.8 µM; in [7], 52 µM. Further, the TGI in assay [8] was 32.1 µM; in assay [9], 40.2 µM; in assay [10], 55.4 µM.

As to `CN(NC(=O)/C(=C/c1ccc(O)cc1)NC(=O)c1ccccc1)c1ccnc2cc(Cl)ccc12`, the TGI stood at 33 µM in [1]; 36.2 µM in [3]; 5.84 µM in [4]; 23 µM in assay [5]; 39.8 µM in assay [6]; 40.7 µM in assay [7]. Moreover, the TGI in assay [8] turned out to be 37.5 µM; in assay [9] it was 48.6 µM; in assay [10], 22.8 µM.

As to `COc1ccc(NC(=O)CC/C(CC(=O)c2ccco2)=N/Nc2ccc([N+](=O)[O-])cc2[N+](=O)[O-])cc1`, the TGI in assay [1] is more than 100 µM; in assay [3], more than 100 µM; in assay [4], 88.8 µM; in assay [5], more than 100 µM; in [6] it was more than 100 µM; in [7] it was 82.3 µM. Also, the TGI in assay [8], in assay [9] and in [10] was more than 100 µM each time.

On to `CC/C(=C(\c1ccccc1)c1ccc(OCCN(C)C)cc1)c1ccccc1`, for which the GI50 in assay [2] was 6.8 µM; in assay [3], 0.892 µM; in assay [4] it was 1.78 µM; in assay [5], 1.17 µM; in assay [6], 1.91 µM; in assay [7], 1.2 µM. The GI50 is 0.852 µM in [8] and 3.34 µM in [9].
